# Results: US8853213B2, “Bicyclic compound for modulating G protein-coupled receptors” (Hanmi Pharm. Co., Ltd, priority 2011, dated 2014)
# Target: T1, GPR119 (Homo sapiens, UniProt Q8TDV5)
# T1 construct: host or cells: CHO-K1 (CRE-bla reporter, doxycycline-induced)
# T1 sequence (Q8TDV5 1-335): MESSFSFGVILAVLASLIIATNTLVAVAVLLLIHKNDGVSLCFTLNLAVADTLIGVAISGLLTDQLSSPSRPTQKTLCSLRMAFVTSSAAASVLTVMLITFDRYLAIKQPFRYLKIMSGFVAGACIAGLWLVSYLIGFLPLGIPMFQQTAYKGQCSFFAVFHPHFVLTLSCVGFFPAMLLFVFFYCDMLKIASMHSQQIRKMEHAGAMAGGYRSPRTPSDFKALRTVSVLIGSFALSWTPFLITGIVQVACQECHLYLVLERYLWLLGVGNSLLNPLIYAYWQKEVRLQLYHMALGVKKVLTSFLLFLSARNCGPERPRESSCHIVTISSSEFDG
# Assay: Controlling Effect of GPR119 in CRE-bla CHO-K1 Cells (EC50)
# Format: cell-based
# Conditions: GPR119 CRE-bla CHO-K1 cell line, 5 hr incubation with compound, β-lactamase LiveBLAzer-FRET B/G readout; read-out: controlling effect against GPR119 in CRE-bla CHO-K1 cell line (EC50)
# Experimental: Controlling Effect of GPR119 in CRE-bla CHO-K1 Cells (EC50)
# The day before the experiment, GPR119 CRE-bla CHO-K1 cell line purchased from Invitrogen was seeded in a 96 black well plate in an amount of 80 μl at a density of 5×10^4 cells. After the seeding, 10 μl of doxycycline in a concentration of 1 μg/ml was added to each well and incubated in an incubator at 37° C. under 5% CO2 for about 16 to 20 hr.
# The day of experiment, sample compounds were performed a 10-fold serial dilution with a culture medium at various concentrations of 1 uM to […]. Considering that the culture medium used in the seeding and doxycycline are together applied, the sample compounds were diluted to a 5-fold dilution of the planned concentration. 20 μl of the compound diluted with the culture medium was added to each well and incubated in the incubator for 5 hr. The compound-untreated group was added with 20 μl of 0.5% dimethyl sulfoxide (DMSO) diluted with the culture medium. After 5 hr from the incubation, substrate mixture of a 6-fold concentration were prepared; 6 μl of 1 mM LiveBLAzer™-FRET B/G(CCF4-AM) substrate, 60 μl of solution B, 904 μl of solution C and 30 μl of solution D. 12 μl of the substrate mixture was added to each well and allowed to be kept at room temperature for 2 hr with shading the light. Fluorescence intensity value of blue channel and green channel was determined by a fluorescence microplate reader at 409 nm/460 nm and 409 nm/[…] (excitation/emission), respectively. In order to confirm the controlling effect of the inventive compounds against GPR119, EC50 (half maximal effective concentration) was determined based on the determined values. EC50, the concentration at which 50% activity of β-lactamase, was determined according to the following Equation: Equation=[(Ti−Tz)/(C−Tz)]×100
# [Wherein, Ti: Cell density of the compound-treated group; Tz: Cell density of the negative control group; and C: Cell density of the positive control group]
row,EC50,SMILES
1,< 100 nM,"CC(C)c1noc(N2CCC(Oc3ncnc4c(-c5ccc(S(=O)(=O)C(C)C)cc5)csc34)CC2)n1 [Example 105, 4-[1-(3-isopropyl-[1,2,4]oxadiazol-5-yl)-piperidin-4-yloxy]-7-(4-isopropylsulfonyl-phenyl)-thieno[3,2-d]pyrimidine]"
2,> 1000 nM,"CC(C)c1noc(N2CCC(Oc3ncnc4c(-c5ccc(F)c(F)c5F)csc34)CC2)n1 [Example 97, 4-[1-(3-isopropyl-[1,2,4]oxadiazol-5-yl)-piperidin-4-yloxy]-7-(2,3,4-trifluoro-phenyl)-thieno[3,2-d]pyrimidine]"
3,100 to 1000 nM,"CC(C)(C)OC(=O)N1CCC(Nc2ncnc3c(-c4ccc(S(C)(=O)=O)cc4)csc23)CC1 [Example 109, tert-butyl 4-(7-(4-methanesulfonyl-phenyl)thieno[3,2-d]pyrimidin-4-ylamino)piperidin-1-carboxylate]"
4,< 100 nM,"CC(C)(C)c1noc(C2CCN(c3ncnc4c(-c5ccc(S(C)(=O)=O)cc5F)csc34)CC2)n1 [Example 17, 4-[4-(3-tert-butyl-[1,2,4]oxadiazol-5-yl)-piperidin-1-yl]-7-(2-fluoro-4-methanesulfonyl-phenyl)-thieno[3,2-d]pyrimidine]"
5,< 100 nM,"CC(C)c1noc(N2CCC(Oc3ncnc4c(-c5ccc(S(C)(=O)=O)cc5F)cn(C)c34)CC2)n1 [Example 36, 5-(4-(7-(2-fluoro-4-methanesulfonyl-phenyl)-5-methyl-5H-pyrrolo[3,2-d]pyrimidin-4-yloxy)piperidin-1-yl)-3-isopropyl-1,2,4-oxadiazole]"
6,> 1000 nM,"CS(=O)(=O)c1ccc(-c2csc3c(N4CCCCC4)ncnc23)cc1 [Example 3, 7-(4-methanesulfonyl-phenyl)-4-(piperidin-1-yl)thieno[3,2-d]pyrimidine]"
7,100 to 1000 nM,"CC(C)c1noc(N2CCC(Oc3ncnc4c(-c5ccc(OC(F)(F)F)cc5)csc34)CC2)n1 [Example 99, 4-[1-(3-isopropyl-[1,2,4]oxadiazol-5-yl)-piperidin-4-yloxy]-7-(4-trifluoromethoxy-phenyl)-thieno[3,2-d]pyrimidine]"
8,< 100 nM,"CS(=O)(=O)c1ccc(-c2csc3c(OC4CCN(c5nc(CC6CC6)no5)CC4)ncnc23)cc1 [Example 52, 3-(cyclopropylmethyl)-5-(4-(7-(4-methanesulfonyl-phenyl)thieno[3,2-d]pyrimidin-4-yloxy)piperidin-1-yl)-1,2,4-oxadiazole]"
9,> 1000 nM,"CN1CCC(Oc2ncnc3c(-c4ccc(S(C)(=O)=O)cc4F)csc23)CC1 [Example 74, 7-(2-fluoro-4-methanesulfonyl-phenyl)-4-[1-methylpiperidin-4-yloxy]thieno[3,2-d]pyrimidine]"
10,< 100 nM,"CS(=O)(=O)c1ccc(-c2csc3c(OC4CCN(c5nc(-c6cccnc6)no5)CC4)ncnc23)c(F)c1 [Example 67, 5-(4-(7-(2-fluoro-4-methanesulfonyl-phenyl)thieno[3,2-d]pyrimidin-4-yloxy)piperidin-1-yl)-3-(pyridin-3-yl)-1,2,4-oxadiazole]"
11,< 100 nM,"CS(=O)(=O)c1ccc(-c2csc3c(OC4CCN(c5nc(-c6ccc(F)cc6)no5)CC4)ncnc23)c(F)c1 [Example 65, 5-(4-(7-(2-fluoro-4-methanesulfonyl-phenyl)thieno[3,2-d]pyrimidin-4-yloxy)piperidin-1-yl)-3-(4-fluorophenyl)-1,2,4-oxadiazole]"
12,< 100 nM,"CC(C)(C)OC(=O)N1CCC(Oc2ncnc3c(-c4ccc(S(C)(=O)=O)cc4F)csc23)CC1 [Example 72, tert-butyl 4-(7-(2-fluoro-4-methanesulfonyl-phenyl)thieno[3,2-d]pyrimidin-4-yloxy)piperidin-1-carboxylate]"
13,< 100 nM,"CCn1cc(-c2ccc(S(C)(=O)=O)cc2F)c2ncnc(OC3CCN(c4nc(C(C)C)no4)CC3)c21 [Example 37, 5-(4-(5-ethyl-7-(2-fluoro-4-methanesulfonyl-phenyl)-5H-pyrrolo[3,2-d]pyrimidin-4-yloxy)piperidin-1-yl)-3-isopropyl-1,2,4-oxadiazole]"
14,< 100 nM,"CS(=O)(=O)c1ccc(-c2csc3c(OC4CCN(c5nc(CC6CC6)no5)CC4)ncnc23)c(F)c1 [Example 69, 7-(2-fluoro-4-methanesulfonyl-phenyl)-4-[1-(3-cyclopropylmethyl-[1,2,4]oxadiazol-5-yl)piperidin-4-yloxy]thieno[3,2-d]pyrimidine]"
15,< 100 nM,CC(C)c1noc(C2CCN(c3ncnc4c(-c5ccc(S(C)(=O)=O)cc5F)csc34)CC2)n1 [Example 12]
16,< 100 nM,"CS(=O)(=O)c1ccc(-c2csc3c(OC4CCN(c5nc(C6CC7CCC6C7)no5)CC4)ncnc23)c(F)c1 (stereo not drawn) [Example 80, 7-(2-fluoro-4-methanesulfonyl-phenyl)-4-[1-(3-bicyclo[2,2,1]heptan-2-yl[1,2,4]oxadiazol-5-yl)piperidin-4-yloxy]thieno[3,2-d]pyrimidine]"
17,< 100 nM,"CCCS(=O)(=O)c1ccc(-c2csc3c(N4CCC(c5nc(C(C)C)no5)CC4)ncnc23)cc1 [Example 20, 4-[4-(3-isopropyl-[1,2,4]oxadiazol-5-yl)-piperidin-1-yl]-7-(4-(propylsulfonyl)phenyl)-thieno[3,2-d]pyrimidine]"
18,< 100 nM,"CS(=O)(=O)c1ccc(-c2csc3c(N4CCC(c5nc(C6CCCC6)no5)CC4)ncnc23)c(F)c1 [Example 19, 4-[4-(3-cyclopentyl-[1,2,4]oxadiazol-5-yl)-piperidin-1-yl]-7-(2-fluoro-4-methanesulfonyl-phenyl)-thieno[3,2-d]pyrimidine]"
19,100 to 1000 nM,"CC(C)c1noc(C2CCN(c3ncnc4c(-c5ccc(C(=O)O)cc5)csc34)CC2)n1 [Example 15, 4-{4-[4-(3-isopropyl-[1,2,4]oxadiazol-5-yl)-piperidin-1-yl]-thieno[3,2-d]pyrimidin-7-yl}-benzoic acid]"
20,< 100 nM,"CCc1noc(N2CCC(Oc3ncnc4c(-c5ccc(S(C)(=O)=O)cc5F)csc34)CC2)n1 [Example 61, 3-ethyl-5-(4-(7-(2-fluoro-4-methanesulfonyl-phenyl)thieno[3,2-d]pyrimidin-4-yloxy)piperidin-1-yl)-1,2,4-oxadiazole]"
21,< 100 nM,"CC(C)c1noc(C2CCN(c3ncnc4c(-c5ccc(S(=O)(=O)C(C)C)cc5)csc34)CC2)n1 [Example 22, 4-[4-(3-isopropyl-[1,2,4]oxadiazol-5-yl)-piperidin-1-yl]-7-(4-(isopropylsulfonyl)phenyl)-thieno[3,2-d]pyrimidine]"
22,> 1000 nM,"CC(C)c1noc(N2CC[C@H](Oc3ncnc4c(-c5ccc(S(C)(=O)=O)cc5)cn(C)c34)C2)n1 [Example 38, 4-[1-(3-isopropyl-[1,2,4]oxadiazol-5-yl)-pyrrolidin-3-yloxy]-7-(4-methanesulfonyl-phenyl)-5-methyl-5H-pyrrolo[3,2-d]pyrimidine]"
23,> 1000 nM,"CCc1cnc(N2CCC(Oc3ncnc4c(-c5ccc(N)cc5)cn(C)c34)CC2)nc1 [Example 121, 4-(4-(1-(5-ethylpyrimidin-2-yl)piperidin-4-yloxy)-5-methyl-5H-pyrrolo[3,2-d]pyrimidin-7-yl)benzenamine]"
24,> 1000 nM,"CC(C)c1noc(N2CCC(Oc3ncnc4c(-c5ccc(N)cc5)cn(C)c34)CC2)n1 [Example 41, 4-(4-(1-(3-isopropyl-1,2,4-oxadiazol-5-yl)piperidin-4-yloxy)-5-methyl-5H-pyrrolo[3,2-d]piperidin-7-yl)benzenamine]"
